From ChEMBL document CHEMBL5126515, “Progress of thrombus formation and research on the structure-activity relationship for antithrombotic drugs” (Eur J Med Chem, 2022)
Values after ≈ are worked out from the molar mass of the structure shown. One block for each compound: values may come before it.

Legend:
P2Y purinoceptor 1 = P2Y purinoceptor 1 (Homo sapiens, UniProt P47900); experiment: Antagonist activity at P2Y1 receptor (unknown origin); format: functional
Coagulation factor X [1] = biological target: Coagulation factor X (Homo sapiens, UniProt P00742); experiment: Binding affinity to FXa (unknown origin)
Sequence of Coagulation factor X (Homo sapiens, UniProt P00742) (P00742 41-179 limits assumed): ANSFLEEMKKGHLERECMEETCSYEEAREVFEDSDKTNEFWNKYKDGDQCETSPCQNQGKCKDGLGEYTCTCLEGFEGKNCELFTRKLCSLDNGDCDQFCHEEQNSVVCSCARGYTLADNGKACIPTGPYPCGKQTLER
Sequence of Coagulation factor X (Homo sapiens, UniProt P00742) (P00742 235-488 limits assumed): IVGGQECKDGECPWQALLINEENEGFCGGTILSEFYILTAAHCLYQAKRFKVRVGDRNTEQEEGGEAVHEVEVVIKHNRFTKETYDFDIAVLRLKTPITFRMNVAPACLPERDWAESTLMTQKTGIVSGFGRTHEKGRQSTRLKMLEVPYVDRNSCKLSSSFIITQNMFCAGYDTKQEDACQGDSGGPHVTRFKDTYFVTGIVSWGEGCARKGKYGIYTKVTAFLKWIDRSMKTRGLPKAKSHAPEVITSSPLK

Plasma [2] = experiment: Anticoagulant activity in rabbit plasma assessed as thrombin time; format: functional, Oryctolagus cuniculus
Plasma [3] = experiment: Anticoagulant activity in rabbit plasma assessed as activated partial thromboplastin time; format: functional, Oryctolagus cuniculus
Plasma [4] = experiment: Anticoagulant activity in rabbit plasma assessed as prothrombin time; format: functional, Oryctolagus cuniculus
[5] = Antiplatelet activity in platelet (unknown origin) assessed as inhibition of ADP-induced platelet aggregation relative to control; format: functional, cell-based; details: for IC50: platelet
[6] = Antiplatelet aggregation activity in rabbit platelet assessed as reduction in ADP-induced platelet aggregation; format: functional, cell-based; details: Oryctolagus cuniculus
Coagulation factor X [7] = biological target: Coagulation factor X (Mus musculus, UniProt O88947); experiment: Inhibition of mouse FXa
Sequence of Coagulation factor X (Mus musculus, UniProt O88947) (O88947 41-180 limits assumed): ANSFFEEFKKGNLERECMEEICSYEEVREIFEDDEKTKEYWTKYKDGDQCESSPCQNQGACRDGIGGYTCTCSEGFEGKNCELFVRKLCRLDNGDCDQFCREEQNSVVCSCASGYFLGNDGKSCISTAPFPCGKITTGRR
Sequence of Coagulation factor X (Mus musculus, UniProt O88947) (O88947 232-481 limits assumed): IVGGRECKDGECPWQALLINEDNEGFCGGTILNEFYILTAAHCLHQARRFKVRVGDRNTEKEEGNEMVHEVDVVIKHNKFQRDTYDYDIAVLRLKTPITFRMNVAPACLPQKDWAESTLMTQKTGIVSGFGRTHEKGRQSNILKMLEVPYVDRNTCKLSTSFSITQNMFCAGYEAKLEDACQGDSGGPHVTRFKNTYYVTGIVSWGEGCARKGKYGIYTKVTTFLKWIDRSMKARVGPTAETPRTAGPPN

Plasma [8] = experiment: Anticoagulant activity in mouse plasma assessed inhibition of thrombin-induced platelet aggregation; format: functional, cell-free
[9] = Antiplatelet activity in human platelet; format: functional, cell-based
Plasma [10] = experiment: Antithrombotic activity in rat plasma; format: functional
Plasma [11] = experiment: Antiplatelet activity in rabbit plasma assessed as inhibition of arachidonic acid induced platelet aggregation; format: functional, cell-free; details: Oryctolagus cuniculus
Rattus norvegicus [12] = species on record: Rattus norvegicus; experiment: Antiplatelet aggregration activity in arteriovenous bypass thrombosis rat model assessed as aggregation inhibition rate relative to control; format: functional
Platelet [13] = experiment: Potency index, ratio of IC50 for MCI-154 to IC50 for test compound against antiplatelet activity in human platelet; format: functional
[14] = Anticoagulant activity in human platelet assessed as reduction in thrombin-induced platelet aggregation in presence of ADP by measuring turbidity; format: functional, cell-based
Plasma [15] = experiment: Antiplatelet activity in plasma (unknown origin) assessed as reduction of thrombin-induced platelet aggregation by aggregometer; format: functional, cell-free; details: Homo sapiens
Plasma [16] = experiment: Antiplatelet activity in plasma (unknown origin) assessed as reduction of ADP-induced platelet aggregation by aggregometer; format: functional, cell-free; details: Homo sapiens
Plasma [17] = experiment: Antiplatelet aggregation activity in rabbit plasma incubated for 5 mins; format: functional, cell-free; details: Oryctolagus cuniculus
Plasma (Mus musculus) = experiment: Anticoagulant activity in mouse plasma assessed as prothrombin time
[18] = Antithrombotic activity in fresh platelet rich plasma; format: functional, cell-based
Platelet [19] = experiment: Potency index ratio of IC50 for CCI-17810 to IC50 test compound against antiplatelet activity in platelet (unknown origin); format: functional
Plasma [20] = experiment: Antithrombotic activity in mouse plasma assessed as clotting time administered IV
Plasma [21] = experiment: Antithrombotic activity in mouse plasma assessed as prothrombin time administered IV
Erythrocyte = experiment: Anticoagulant activity in human RBC assessed as decrease in epinephrine induced platelet aggregation by measuring increased clotting time relative to control; format: functional
Blood [22] = experiment: Antithrombotic activity in ferric chloride-treated carotid artery thrombosis Sprague-dawley rat blood assessed as clot weight at 10 mg/kg (RVB = 72.50 +/- 2 mg); format: functional
Blood [23] = experiment: Antithrombotic activity in photochemically induced arterial thrombosis Cynomolgus monkey blood assessed as decrease in occlusion time (reference value: 119 +/- 17.40 min); format: functional, Macaca fascicularis
Blood [24] = experiment: Antithrombotic activity in ferric chloride-treated carotid artery thrombosis Sprague-dawley rat blood assessed as clot weight at 50 mg/kg (RVB = 72.50 +/- 2 mg); format: functional
Prothrombin = Prothrombin (Homo sapiens, UniProt P00734); experiment: Inhibition of thrombin in human plasma; format: cell-free
Plasma [25] = experiment: Antithrombotic activity in human plasma assessed as thrombin time; format: functional
Rattus norvegicus [26] = species on record: Rattus norvegicus; experiment: Antithrombotic activity in arteriovenous bypass thrombo-genesis rat model assessed as quality of thrombosis; format: functional

Sequence of P2Y purinoceptor 1 (P47900 whole entry): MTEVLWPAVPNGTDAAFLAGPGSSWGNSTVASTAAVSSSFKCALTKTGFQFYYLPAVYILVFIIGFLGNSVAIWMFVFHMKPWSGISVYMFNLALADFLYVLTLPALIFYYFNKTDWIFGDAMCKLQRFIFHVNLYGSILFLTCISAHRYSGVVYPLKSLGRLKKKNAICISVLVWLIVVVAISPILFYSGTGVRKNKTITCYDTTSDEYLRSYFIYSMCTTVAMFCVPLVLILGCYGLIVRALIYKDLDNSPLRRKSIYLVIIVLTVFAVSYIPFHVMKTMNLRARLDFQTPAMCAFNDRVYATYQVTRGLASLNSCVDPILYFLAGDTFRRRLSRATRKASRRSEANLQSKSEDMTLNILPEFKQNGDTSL

IC50 (P2Y purinoceptor 1): 0.84 µM
Compound: CNc1nc(Cl)nc2c1ncn2CCC(COP(=O)(O)O)COP(=O)(O)O

Ki (Coagulation factor X [1]): 1 µM
Compound: COc1ccc(C(=O)Nc2ccccc2NC(=O)c2ccc(OC)cc2)cc1

IC50 (P2Y purinoceptor 1): 1.6 µM
Compound: CNc1ncnc2c1ncn2CCC(COP(=O)(O)O)COP(=O)(O)O

IC50 (Coagulation factor X [7]): 0.0021 µM
Compound: CC(=N)N1CCC(Oc2ccc3c(c2)C(=O)NS(=O)(=O)N3Cc2ccc3ccc(C(=N)N)cc3c2)CC1

IC50 (Plasma [8]): 0.11 µM
Compound: CCOC(=O)CCN(C(=O)c1ccc2c(c1)nc1n2CCN(CC(=O)OC(C)(C)C)C1Cc1ccc(/C(N)=N/CC(=O)OC(C)(C)C)cc1)c1ccccc1 (stereo not given)

IC50 [9]: 0.06 µM
Compound: CC1CC(=O)NN=C1c1ccc(NC(=O)Cn2ccnc2)cc1 (stereo not given)

IC50 (Coagulation factor X [7]): 0.0025 µM
Compound: CC(=N)N1CCC(Oc2ccc3c(c2)C(=O)NS(=O)(=O)N3CC(=O)Nc2cccc(C(=N)N)c2)CC1

IC50 (Plasma [11]): 17 µg/mL (≈ 39.8 µM)
Compound: O=C(CC1Nc2c(ccc(Cl)c2[N+](=O)[O-])OC1=O)c1ccc(Br)cc1 (stereo not given)

IC50 (Coagulation factor X [7]): 0.0028 µM
Compound: CC(=N)N1CCC(Oc2ccc3c(c2)C(=O)NS(=O)(=O)N3C/C=C/c2cccc(C(=N)N)c2)CC1

IC50 [9]: 0.03 µM
Compound: CCCN(CCC)CC(=O)Nc1ccc(C2=NNC(=O)CC2)cc1
Ratio IC50 (Platelet [13]): 10

IC50 [9]: 0.085 µM
Compound: CCCN(CCC)CC(=O)Nc1ccc(C2=NNC(=O)CC2C)cc1 (stereo not given)

IC50 [14]: 66 µM
Compound: O=C1CNC(=O)C(Cc2c[nH]cn2)N1 (stereo not given)

IC50 (Plasma [15]): 22.2 µM | IC50 (Plasma [16]): 41.7 µM
Compound: O=C(O)C(Cc1ccc2c(c1)OCC(COCC1CCNCC1)O2)NS(=O)(=O)c1ccccc1 (stereo not given)

IC50 [6]: 2.5 µM
Compound: CCCCCCCCN1CCN(c2ccc(C3=NNC(=O)CC3)cc2)CC1

IC50 (Plasma [17]): 8.99 µM
Compound: CCN1C(=O)COc2cc(NC(=O)c3ccccc3)ccc21

IC50 (Plasma [11]): 18 µg/mL (≈ 63.8 µM)
Compound: Cc1ccc2c(c1)NC(CC(=O)c1ccccc1)C(=O)O2 (stereo not given)

IC50 (Plasma [8]): 0.32 µM
Compound: CCOC(=O)CCN(C(=O)c1ccc2c(c1)nc1n2CCN(CC(=O)OCC)C1Cc1ccc(/C(N)=N/CC(=O)OCC)cc1)c1ccccc1 (stereo not given)

IC50 [18]: 0.2 µM
Compound: O=C(CC1CCCCCCCCCNC(=O)OCOC(=O)C(Cc2ccccc2)NC1=O)OCc1ccccc1 (stereo not given)

IC50 [5]: 0.008 µM
Compound: CCCN(CCC)CC(=O)N1CCN(c2ccc(C3=NNC(=O)CC3C)cc2)CC1 (stereo not given)
Ratio IC50 (Platelet [19]): 60

IC50 [18]: 0.4 µM
Compound: O=C(O)CC1CCCCCCCCCNC(=O)OCOC(=O)C(Cc2ccccc2)NC1=O (stereo not given)

IC50 [9]: 0.05 µM
Compound: CC1CC(=O)NN=C1c1ccc(NC(=O)CN2CCCCC2)cc1 (stereo not given)

IC50 (Plasma [17]): 8.94 µM
Compound: CCN1C(=O)COc2cc(NC(=O)CCCl)ccc21

IC50 [6]: 1760 µM
Compound: COc1cc(/C=C/C(=O)O)ccc1OCc1cccnc1

IC50 (Prothrombin): 114 µM
Compound: CC1(C)[C@@H](OC(=O)c2ccccc2C(=O)O)CC[C@]2(C)[C@H]3C(=O)C=C4[C@@H]5C[C@@](C)(C(=O)O)CC[C@]5(C)CC[C@@]4(C)[C@]3(C)CC[C@@H]12
Time (Plasma [25]): 118.3 s

IC50 (Plasma [8]): 0.47 µM
Compound: CCOC(=O)CCN(C(=O)c1ccc2c(c1)nc1n2CCN(CC(=O)OCc2ccccc2)C1Cc1ccc(/C(N)=N/CC(=O)OCc2ccccc2)cc1)c1ccccc1 (stereo not given)

IC50 (Plasma [8]): 0.57 µM
Compound: CCCCCOC(=O)C/N=C(\N)c1ccc(CC2c3nc4cc(C(=O)N(CCC(=O)OCC)c5ccccc5)ccc4n3CCN2CC(=O)OCCCCC)cc1 (stereo not given)

IC50 (Plasma [8]): 0.6 µM
Compound: Cn1c(CNc2ccc(C(=N)N)cc2)nc2cc(C(=O)N(CCC(=O)O)c3ccccn3)ccc21 [DABIGATRAN]

IC50 [6]: 19600 µM
Compound: COc1cc(/C=C/C(=O)O)ccc1O [FERULATE]

IC50 [6]: 2850 µM
Compound: O=C(O)/C=C/c1ccc(Cn2ccnc2)cc1 [OZAGREL]

IC50 [9]: 0.36 µM
Compound: O=C1CCC(c2ccc(Nc3ccncc3)cc2)=NN1 [SENAZODAN]

IC50 (Coagulation factor X [7]): 0.006 µM
Compound: CC(=N)N1CCC(Oc2ccc(N(Cc3ccc4ccc(C(=N)N)cc4c3)S(=O)(=O)CC(=O)O)cc2)CC1 [YM-60828]

The remaining lines, values behind:

Compound: CNc1nc(Cl)nc2c1ncn2CC(COP(=O)(O)O)COP(=O)(O)O
IC50 (P2Y purinoceptor 1): 0.48 µM

Compound: COc1ccc(-c2oc3cc(O)cc(O)c3c(=O)c2O)cc1OC
Time (Plasma [2]): 9.9 s | Time (Plasma [3]): 5.8 s | Time (Plasma [4]): 58.7 s

Compound: COc1cc(OC)c2c(=O)c(O)c(-c3ccc(O)c(O)c3)oc2c1
Time (Plasma [2]): 21.8 s | Time (Plasma [3]): 6.9 s | Time (Plasma [4]): 67.6 s

Compound: CNc1ncnc2c1ncn2CC(COP(=O)(O)O)COP(=O)(O)O
IC50 (P2Y purinoceptor 1): 1.09 µM

Compound: COc1cc(O)cc2oc(-c3ccc(O)c(O)c3)c(O)c(=O)c12
Time (Plasma [2]): 19.4 s | Time (Plasma [3]): 7.6 s | Time (Plasma [4]): 49.2 s

Compound: CC(C)[C@](O)(C(=O)OCC1=CCN2CC[C@@H](O)[C@@H]12)[C@H](C)O
IC50 [5]: 0.49 µM | IC50 [6]: 12.5 µM

Compound: N#Cc1ccc(SC2SC[C@H](O)[C@@H](O)[C@H]2O)cc1 (stereo not given in full)
ED50 (Plasma [10]): 15 mg/kg

Compound: COc1cc(/C=C/C(=O)OCc2c(-c3ccccc3)no[n+]2[O-])ccc1OC(=O)c1ccccc1OC(C)=O
inhibition (INH) (Rattus norvegicus [12]): 12.1%

Compound: COc1cc(/C=C/C(=O)OC2COC3C(O[N+](=O)[O-])COC23)ccc1OC(=O)c1ccccc1OC(C)=O (stereo not given)
inhibition (INH) (Rattus norvegicus [12]): 28.7%

Compound: CC(=O)Oc1ccccc1C(=O)Nc1n[n+](-c2ccc(C)cc2)no1
inhibition (INH) [5]: 30.7%

Compound: COC(=O)c1ccccc1OCCOc1ccc2c(C)cc(=O)oc2c1
Time (Plasma (Mus musculus)): 8.44 s

Compound: N#Cc1ccc(S[C@H]2C[C@@H](O)[C@H](O)CS2)cc1
ED50 (Plasma [10]): 7 mg/kg

Compound: Cc1cc(=O)oc2cc(OCCOc3ccccc3C(=O)OCCOc3ccc4ccc(=O)oc4c3)ccc12
Time (Plasma (Mus musculus)): 13.1 s

Compound: COc1cc(/C=C/C(=O)OCCOCCO[N+](=O)[O-])ccc1OC(=O)c1ccccc1OC(C)=O
inhibition (INH) (Rattus norvegicus [12]): 16%

Compound: CC(=O)Nc1ccc(C(=O)Nc2cc(C(N)=O)ccc2NC(=O)c2ccc(-n3ccccc3=O)cc2)cc1Cl
Time (Plasma [4]): 10.2 s

Compound: O=C(Nc1ccc2oc(=O)ccc2c1)c1ccc(-c2noc(CCl)n2)cc1
Time (Plasma [20]): 17.7 s | Time (Plasma [21]): 42.3 s

Compound: O=C(OCCOc1ccc2ccc(=O)oc2c1)c1ccccc1OCCOc1ccc2ccc(=O)oc2c1
Time (Plasma (Mus musculus)): 10.88 s

Compound: COc1cc(C(=O)Nc2cc(C(N)=O)ccc2NC(=O)c2ccc(-n3ccccc3=O)cc2)ccc1O
Time (Plasma [4]): 8.8 s

Compound: Cn1c(-c2ccc(Br)s2)nc2cc(-c3nnc(-c4cc(-c5cc(F)cc(F)c5)nc5ccccc45)o3)ccc21
inhibition (INH) (Erythrocyte): 93.4%

Compound: O=C(COCC(=O)N1CCN(C(c2ccccc2)c2ccccc2)CC1)Nc1ccc(Cl)cc1C(=O)[O-].[Na+]
Activity (Blood [22]): 60.9 mg | Time (Blood [23]): 53.9 min | Activity (Blood [24]): 56.8 mg

Compound: CN(C)C(=O)c1ccc(NC(=O)c2ccc(-n3ccccc3=O)cc2)c(NC(=O)c2ccc(Cl)c(Cl)c2)c1
Time (Plasma [4]): 9.5 s

Compound: CC(=O)Oc1ccccc1C(=O)Oc1ccc(/C=C/C(=O)OCCCCO[N+](=O)[O-])cc1
inhibition (INH) (Rattus norvegicus [12]): 43.9%

Compound: COc1cc(/C=C/C(=O)OCCCCCCCCCOc2no[n+]([O-])c2S(=O)(=O)c2ccccc2)ccc1OC(=O)c1ccccc1OC(C)=O
inhibition (INH) (Rattus norvegicus [12]): 15.7%

Compound: COc1cc(/C=C/C(=O)O)ccc1OCCN(C)C
inhibition (INH) [5]: 83.1%

Compound: COc1cc(/C=C/C(=O)O)ccc1OCCN1CCOCC1
inhibition (INH) [5]: 91.4%

Compound: COc1ccc(-n2nc(C(N)=O)c3c2C(=O)N(c2ccc(N4CCCCC4=O)cc2)CC3)cc1 [APIXABAN]
Time (Plasma [4]): 10 s

Compound: CC(=O)Oc1ccccc1C(=O)O [ASPIRIN]
inhibition (INH) (Rattus norvegicus [12]): 14.7% | Activity (Rattus norvegicus [26]): 10.5 mg

Compound: N#Cc1ccc(S[C@@H]2SC[C@@H](O)[C@H](O)[C@H]2O)cc1 [BECIPARCIL]
ED50 (Plasma [10]): 25 mg/kg

Compound: COc1cc(O)c2c(=O)c(O)c(-c3ccc(O)c(O)c3)oc2c1 [RHAMNETIN]
Time (Plasma [2]): 23 s | Time (Plasma [3]): 6.8 s | Time (Plasma [4]): 72.6 s

Compound: CC(=O)CC(c1ccccc1)c1c(O)c2ccccc2oc1=O (stereo not given) [WARFARIN]
Time (Plasma (Mus musculus)): 7.97 s | Time (Plasma [20]): 23.2 s | Time (Plasma [21]): 42.3 s
